Measurements taken from ChEMBL document CHEMBL1201862, “PubChem BioAssay data set” (2004).
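Compound exposure: 48 hours, 5 concentrations, 96-well plates. GI50: concentration for 50% inhibition of growth.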 Active and inactive are the calls of the source. Cut-off read from the data, not from the text of the source: active = GI50 up to about 1.1 µM and inactive = higher.

Experiments:
Test in all cases: growth of human tumour cells (NCI), 48 h
[1] = test system: ACHN
[2] = test system: DMS-114
[3] = test system: HOP-62
[4] = test system: HOP-92
[5] = test system: SK-MEL-28
[6] = test system: SK-MEL-2
[7] = test system: SN12C
[8] = test system: SR
[9] = test system: SW-620
[10] = test system: TK-10
[11] = test system: EKVX
[12] = test system: MOLT-4
[13] = test system: OVCAR-4
[14] = test system: OVCAR-8
[15] = test system: UACC-62
[16] = test system: BT-549
[17] = test system: DU-145
[18] = test system: NCI/ADR-RES
[19] = test system: PC-3
[20] = test system: T47D

Measured: GI50

Sc1nnc(-c2cccnc2)[nH]1
inactive: [1] > 100 µM | [2] > 100 µM | [3] > 100 µM | [4] > 100 µM | [5] > 100 µM | [6] > 100 µM | [7] > 100 µM | [8] > 100 µM | [9] > 100 µM | [10] > 100 µM

COC(=O)C(Cc1nc2ccccc2nc1C)/C(=N\NC(N)=O)C(=O)Nc1cccc([N+](=O)[O-])c1 (stereo not drawn)
inactive: [1] > 100 µM | [2] 51.5 µM | [11] > 100 µM | [3] > 100 µM | [12] 57.5 µM | [13] > 100 µM | [14] 80.7 µM | [5] > 100 µM | [6] > 100 µM | [7] > 100 µM | [8] 24.4 µM | [9] > 100 µM | [10] > 100 µM | [15] 45.2 µM

Cc1ccc(N2C(=O)/C(=C3\Sc4c(nc(C)[nH]c4=O)N3c3ccccc3)SC2=S)cc1
inactive: [1] 28.8 µM | [2] 72.6 µM | [11] 91.8 µM | [3] 10.4 µM | [4] 41.5 µM | [13] 29.2 µM | [14] 34.6 µM | [5] > 100 µM | [6] 20.3 µM | [7] > 100 µM | [9] > 100 µM | [10] 24 µM | [15] > 100 µM

COC(=O)C1=CC2CC1C(S(=O)(=O)c1ccccc1)C2S(=O)(=O)c1ccccc1 (stereo not drawn)
inactive: [1] 7.48 µM | [2] 15.5 µM | [3] 54.3 µM | [4] 15.1 µM | [12] 4.42 µM | [13] 17.5 µM | [14] 13 µM | [5] 14.1 µM | [7] 14 µM | [8] 2.56 µM | [9] 4.59 µM | [10] 10.4 µM | [15] 22.1 µM

Clc1cc2n[se]nc2cc1Cl
inactive: [1] > 100 µM | [2] > 100 µM | [11] > 100 µM | [3] > 100 µM | [12] > 100 µM | [13] > 100 µM | [14] > 100 µM | [5] > 100 µM | [6] > 100 µM | [7] > 100 µM | [8] > 100 µM | [9] > 100 µM | [10] > 100 µM | [15] > 100 µM

Nc1c2ccccc2nc2ccc(C(=O)Nc3ccc(S(N)(=O)=O)cc3)cc12
inactive: [1] > 100 µM | [16] > 100 µM | [17] > 100 µM | [11] > 100 µM | [3] > 100 µM | [4] > 100 µM | [12] > 100 µM | [18] > 100 µM | [13] > 100 µM | [14] > 100 µM | [19] > 100 µM | [5] > 100 µM | [6] > 100 µM | [7] > 100 µM | [8] > 100 µM | [9] > 100 µM | [20] > 100 µM | [10] > 100 µM | [15] > 100 µM

O=C1c2ccccc2N2OC3(N4CCCC4)CCCC3C12c1ccccc1 (stereo not drawn)
inactive: [1] > 100 µM | [2] 83.4 µM | [11] > 100 µM | [3] > 100 µM | [4] 34.8 µM | [12] 49.9 µM | [13] 29.6 µM | [14] > 100 µM | [5] > 100 µM | [7] > 100 µM | [8] 59.4 µM | [9] > 100 µM | [15] 74.3 µM

COc1cccc2c(SCC(=O)Nc3ccccc3-c3ccccc3NC(=O)CSc3c4ccccc4nc4c(OC)cccc34)c3ccccc3nc12
inactive: [1] > 100 µM | [2] 29.1 µM | [11] 21.7 µM | [3] > 100 µM | [12] > 100 µM | [13] > 100 µM | [14] > 100 µM | [5] > 100 µM | [6] > 100 µM | [7] > 100 µM | [8] 76.9 µM | [10] > 100 µM | [15] 38.6 µM

CCCC(N)C(=O)c1ccccc1 (stereo not drawn)
inactive: [1] > 100 µM | [2] > 100 µM | [11] > 100 µM | [3] > 100 µM | [4] > 100 µM | [13] > 100 µM | [14] > 100 µM | [5] > 100 µM | [6] > 100 µM | [7] > 100 µM | [8] > 100 µM | [9] > 100 µM | [10] > 100 µM | [15] > 100 µM

NC1=NS(=O)(=O)Nc2nc(-c3ccc(Cl)cc3)c(-c3ccc(Cl)cc3)nc21
inactive: [1] > 100 µM | [2] 32.1 µM | [3] > 100 µM | [4] > 100 µM | [12] > 100 µM | [13] > 100 µM | [14] > 100 µM | [5] > 100 µM | [7] > 100 µM | [8] > 100 µM | [9] > 100 µM | [10] > 100 µM | [15] > 100 µM

CC1=C(C(=O)Nc2c(C)cccc2C)C(c2ccc3c(c2)OCO3)C(C(=O)Nc2c(C)cccc2C)=C(C)N1
inactive: [1] 17.5 µM | [2] 16.6 µM | [11] 21.5 µM | [3] 23.1 µM | [12] 15 µM | [13] 30.3 µM | [14] 18.1 µM | [5] 22.2 µM | [7] 16.7 µM | [8] 22.5 µM | [9] 18.2 µM | [10] 24.7 µM | [15] 2.7 µM

CCCCCC(CN1CCOCC1)C(=O)/C=C/c1ccccc1 (stereo not drawn)
inactive: [2] 1.79 µM | [11] 10.4 µM | [3] 5 µM | [4] 2.19 µM | [12] 1.71 µM | [13] 2.95 µM | [5] 5.82 µM | [7] 2.94 µM | [8] 1.95 µM | [9] 1.74 µM | [15] 1.46 µM

CCN(CC)CCCCC1CCN(CC(=O)N2c3ccccc3NC(=O)c3ccccc32)CC1
inactive: [2] > 100 µM | [11] > 100 µM | [3] > 100 µM | [4] > 100 µM | [12] > 100 µM | [13] > 100 µM | [14] > 100 µM | [5] > 100 µM | [6] > 100 µM | [7] > 100 µM | [8] > 100 µM | [9] > 100 µM | [10] > 100 µM | [15] > 100 µM

[N-]=[N+]=NC1C(Cl)C(=O)NC(=O)N1[C@H]1C[C@H](O)[C@@H](CO)O1 (stereo partly drawn)
inactive: [1] > 100 µM | [2] > 100 µM | [11] > 100 µM | [3] > 100 µM | [4] > 100 µM | [12] > 100 µM | [13] > 100 µM | [14] > 100 µM | [5] > 100 µM | [6] > 100 µM | [7] > 100 µM | [9] > 100 µM | [10] > 100 µM | [15] > 100 µM
